The source of these data is PMC10326435, “Antiprotozoal activity of natural products from Nigerien plants used in folk medicine” (Frontiers in Pharmacology, 2023).

In data set [1] the test system is T. b. rhodesiense (STIB900, trypomastigotes). Kind of data set: in vitro activity on T. b. rhodesiense, serial dilution assay. Format: cell-based, Trypanosoma brucei rhodesiense. The note with it: for Selectivity index (SI) T. b. rhodesiense: SI = IC50 cytotoxicity (L6)/IC50 in T. b. rhodesiense; for IC50: 72 h exposure, means of two independent assays ± deviation from the mean, read-out: IC50 T. b. rhodesiense. How it is done:
(§1) The in vitro activity was assessed on T. b. rhodesiense (STIB900, trypomastigotes), T. cruzi (Tulahuen C2C4, intracellular amastigotes), L. donovani (MHOM-ET-67/L82, axenically grown amastigotes), P. falciparum (NF54, intraerythrocytic), and L6 cells (ATCC, CRL-1458™, rat skeletal myoblasts) as previously described ([Bernal et al., 2020]). The activities were determined in serial dilution assays with 72 h compound exposure, respectively 96 h for intracellular T. cruzi. Results are expressed in µg/mL for extracts and in µM for pure compounds. The IC50 values were determined for the compounds only when they were <50 µM.

The test system of data set [2] is T. cruzi (Tulahuen C2C4, intracellular amastigotes). Kind of data set: in vitro activity on T. cruzi, serial dilution assay. It counts as cell-based, Trypanosoma cruzi. The note with it: for IC50: 96 h exposure, means of two independent assays ± deviation from the mean, read-out: IC50 T. cruzi. How it is done: as §1
The test system of data set [3] is L. donovani (MHOM-ET-67/L82, axenically grown amastigotes). Kind of data set: in vitro activity on L. donovani, serial dilution assay. Format: cell-based, Leishmania donovani. To be noted: for IC50: axenic amastigotes, 72 h exposure, means of two independent assays ± deviation from the mean, read-out: IC50 L. donovani; for Selectivity index (SI) L. donovani: SI = IC50 cytotoxicity (L6)/IC50 in L. donovani. How it is done: as §1

Data set [4] has as its system P. falciparum (NF54, intraerythrocytic). Kind of data set: in vitro activity on P. falciparum, serial dilution assay. It counts as cell-based, Plasmodium falciparum. To be noted: for IC50: 72 h exposure, means of two independent assays ± deviation from the mean, read-out: IC50 P. falciparum; for Selectivity index (SI) P. falciparum: SI = IC50 cytotoxicity (L6)/IC50 in P. falciparum. How it is done:
as §1

The next data set is described as follows: cytotoxicity in L6 cells. It counts as cell-based, rat. To be noted: rat. How it is done: as §1
A further data set relates to T. cruzi. The note with it: read-out: IC50 against T. cruzi, cited from earlier work.
For the next data set, the system named is L. amazonensis. More on the design: method as in Costa et al., 2018. The note with it: ref Costa et al., 2018; read-out: IC50 against L. amazonensis; cited from earlier work.
The next data set relates to P. falciparum. The note with it: previously reported; ref Cretton et al., 2015; read-out: IC50 against P. falciparum; cited from earlier work.
The next data set concerns T. b. rhodesiense. To be noted: previously reported; ref Cretton et al., 2015; read-out: IC50 against T. b. rhodesiense; cited from earlier work.
The test system of a further data set is Leishmania spp. Further details: method as in Rocha et al., 2022. To be noted: no significant activity; ref Rocha et al., 2022; read-out: IC50 against Leishmania spp.; cited from earlier work.
Data set [5] has as its system L6 cells (ATCC, CRL-1458, rat skeletal myoblasts). Nature of the data set: cytotoxicity in L6 cells. Format: cell-based. To be noted: rat, 72 h. How it is done: as §1
Data set [6] concerns intracellular L. donovani amastigotes in mouse macrophages. Kind of data set: intracellular L. donovani amastigotes in mouse macrophages. It counts as cell-based, Leishmania donovani. To be noted: not active, read-out: IC50 against intracellular L. donovani amastigotes. From the text: The antiparasitic activity of myricitrin (1) and quercitrin (2) was already described in the literature ([Muzitano et al., 2006]; [Larit et al., 2021]), and therefore it was not evaluated in the present study. Compound 3 was the only compound evaluated from the extract of C. sieberiana and was compared to the activity of miltefosine due to structural similarities. […] Among the cyclopeptide alkaloids isolated from the DCM extract of Z. mauritiana (4, 5, 7–12), a methoxy group at C-13 (10–12) seems to be favorable for the antiplasmodial activity. In addition, the indole group at C-29 present in compounds 9 and 12 seems to be important for the activity against T. b. rhodesiense. […] This is the first report on the antileishmanial and antitrypanosomal activities of these compounds. […] This is in agreement with our study. Among the triterpene derivatives isolated from the DCM root bark extract of Z. mauritiana (6, 13–19), betulinic acid (19), an already well-studied compound, was not tested in this work. […] The triterpenoids tested in the present work (Table 3) were mainly active against L. donovani and presented a good selectivity index. The substitution with an epoxy group in compound 13 compared to compound 6 enhanced the activity toward L. donovani and P. falciparum but not against T. cruzi. […]

Setting [7] is: Trypanosoma cruzi, TULAHUEN, 96 h.
[8] abbreviates: Plasmodium falciparum, NF54, 72 h.

SMILES strings stand for the structures. Read-outs that look alike come from different tables or passages of the source.

As for `CC1(C)C=CC2=C(O1)C(=O)c1c(O)ccc(O[C@@H]3O[C@H](CO)[C@@H](O)[C@H](O)[C@H]3O)c1C2=O` [Compound 29], in data set [1], the “Selectivity index (SI) T. b. rhodesiense” value came to 3.2. The IC50 in data set [1] (Trypanosoma brucei, 72 h) is 12.5 ± 1.6 µM; in [2] (setting [7]) it was above 50 µM; in data set [3] (Leishmania donovani, 72 h), 11.4 ± 2.3 µM; in data set [4] (setting [8]) it was above 50 µM; with T. cruzi (ref Costa et al., 2018) it was 7.6 µM; in the data set with L. amazonensis, 12.6 µM. Also, the “Selectivity index (SI) L. donovani” value in data set [3] stood at 3.5. Besides, the IC50 at 72 h in the data set “cytotoxicity in L6 cells” (L6 cells (rat skeletal myoblasts, ATCC CRL-1458), rat skeletal myoblast (L6 cells), 72 h exposure, means of two independent assays ± deviation from the mean, read-out: IC50 Cytotoxicity) was 40.3 ± 0.7 µM.

`C=C(C)[C@@H]1CC[C@]2(C(=O)O)CC[C@]3(C)[C@H](CC[C@@H]4[C@@]5(C)CC[C@H](O)C(C)(C)[C@@H]5CC[C@]43C)[C@@H]12` [Compound 19, betulinic acid]: the IC50 with P. falciparum was 19 µM; in the data set with T. b. rhodesiense, 4.2 µM; with Leishmania spp. it was above 25 µM; in the data set with T. cruzi (no significant activity, ref Rocha et al., 2022) it was above 25 µM.

Take `C=C(C)C1CCC2(C(=O)O)CCC3(C)C(CCC4C5(C)C(C(=O)O)C(OC(=O)c6ccccc6)C(C)(C)C5CCC43C)C12` [Compound 16, (1S, 3S)-3-O-benzoyl ceanothic acid]: the IC50 in [1] was 30.6 ± 2.8 µM; in [2], above 50 µM; in data set [3], 1.8 ± 0.7 µM; in [4], 15.3 ± 1.5 µM; in data set [5], 32.3 ± 5.1 µM; in data set [6] it was above 50 µM. In data set [1], the “Selectivity index (SI) T. b. rhodesiense” value is on record as 1.1. Also, the “Selectivity index (SI) L. donovani” value in data set [3] came out at 17.9. In data set [4], the “Selectivity index (SI) P. falciparum” value amounted to 2.1.

As to `C=C(C)C1CCC2(C(=O)O)CCC3(C)C(CCC4C5(C)C(C(=O)O)C(OC(=O)c6ccccc6)C(C)(C)C5CCC43C)C12` [Compound 15, (1R, 3S)-3-O-benzoyl ceanothic acid], the IC50 in data set [1] was 11.7 ± 1 µM; in [2] (setting [7]), 43.8 ± 8.4 µM; in data set [3] it was 0.5 ± 0.2 µM; in [4] (setting [8]), 10.1 ± 0.6 µM; in data set [6] (Leishmania donovani, Macrophage), above 50 µM. Moreover, the “Selectivity index (SI) T. b. rhodesiense” value in [1] turned out to be 1.4. The “Selectivity index (SI) T. cruzi” value in data set [2] (SI = IC50 cytotoxicity (L6)/IC50 in T. cruzi) amounted to 0.4. The “Selectivity index (SI) L. donovani” value in [3] stood at 32.8. In addition, the “Selectivity index (SI) P. falciparum” value in data set [4] turned out to be 1.6. In addition, in the data set “cytotoxicity in L6 cells” (IC50 Cytotoxicity), the IC50 at 72 h worked out at 16.4 ± 5.8 µM.

The term IC50 denotes the midpoint of a concentration-inhibition curve.
